Among the data in paper PMC5516028, “Molecular tools for GABAA receptors: High affinity ligands for β1-containing subtypes” (Scientific Reports, 2017) are modulation and Kd values, retold here.

The target of assay [1] is T1, γ1 subunit containing GABAA receptors (Rattus norvegicus, UniProt P15431+P62813).
T1 construct: expressed in transfected cells; host or cells: Xenopus laevis oocytes, mRNA injected
Nature of the assay: Control of γ1 subunit incorporation with triazolam. The format is cell-based. Particulars: 10 µM. The procedure:
(§1) For electrophysiological recordings, oocytes were placed on a nylon-grid in a bath of Ca^2+-containing NDE solution medium [96 mM NaCl, 5 mM HEPES-NaOH (pH 7.5), 2 mM KCl, 1 mM MgCl2, 1.8 mM CaCl2]. For current measurements the oocytes were impaled with two microelectrodes (1–3 MΩ resistance) filled with 2 M KCl. […] The EC3–5 was determined at the beginning of each experiment. Drugs were diluted into NDE from DMSO-solutions resulting in a final concentration of 0.1% DMSO perfusing the oocytes. […] Between two applications, oocytes were washed in NDE for up to 15 min to ensure full recovery from desensitization. […] All recordings were performed at room temperature at a holding potential of […] using a Dagan TEV-200A two-electrode voltage clamp (Dagan Corporation, Mineapolis, MN). Data were digitized, recorded and measured using an Axon Digidata- 1550 low-noise data acquisition system (Axon Instruments, Union City, CA).

The target of assay [2] is benzodiazepine binding site, rat cerebellum membranes. Nature of the assay: [3H]flunitrazepam saturation binding, rat cerebellar membranes. Conditions: n = 3, read-out: equilibrium binding constant KD.
Procedure: In brief, membrane pellets were incubated for 90 min at 4 °C in a total of 500 µL of a solution containing 50 mM Tris/citrate buffer, pH = 7.1, 150 mM NaCl and 2 nM [^3H]flunitrazepam in the absence or presence of either 5 µM diazepam (to determine unspecific binding) or various concentrations of receptor ligands (dissolved in DMSO, final DMSO-concentration 0.5%). Membranes were filtered through Whatman GF/B filters and washed twice with 4 mL of ice-cold 50 mM Tris/citrate buffer. Filters were transferred to scintillation vials and subjected to scintillation counting after the addition of 3 mL Rotiszint Eco plus liquid scintillation cocktail. Nonlinear regression analysis of the displacement curves used the equation: log(inhibitor) vs. response - variable slope with Top = 100% and Bottom = 0% Y = 100/(1 + 10^((logIC50-x)*Hillslope)).
The test system of assay [3] is δ subunit containing GABAA receptors. Nature of the assay: Control of δ subunit incorporation with DS2. The format is cell-based, rat. Conditions: 1 µM. As to the method: as §1, with “desensitization. Maximum currents measured in mRNA injected oocytes were in the microampere range for all subtypes of GABAA receptors. […] In order to monitor receptor composition, diazepam (~200% modulation at 1 µM) was used to investigate the incorporation of the γ2[25] subunit, DS2 (>800% modulation at 1 µM) for the incorporation of the δ subunit and triazolam (>200% modulation at 10 µM) for the γ1 incorporation.” for “desensitization.”, “CA). […]” for “CA).”

T1 sequence (P62813 28-455): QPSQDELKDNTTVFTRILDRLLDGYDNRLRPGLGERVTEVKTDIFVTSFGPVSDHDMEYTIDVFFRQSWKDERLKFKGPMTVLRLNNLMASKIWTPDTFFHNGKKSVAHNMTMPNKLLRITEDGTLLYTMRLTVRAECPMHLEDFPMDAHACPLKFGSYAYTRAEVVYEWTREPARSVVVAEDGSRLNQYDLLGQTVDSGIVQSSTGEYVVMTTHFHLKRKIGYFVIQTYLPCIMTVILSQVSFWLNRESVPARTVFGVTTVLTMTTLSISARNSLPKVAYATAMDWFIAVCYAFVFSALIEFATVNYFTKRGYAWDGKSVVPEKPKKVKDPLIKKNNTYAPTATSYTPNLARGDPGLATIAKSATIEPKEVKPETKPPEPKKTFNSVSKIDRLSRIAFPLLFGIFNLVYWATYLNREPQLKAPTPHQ
T1 sequence (P15431 26-474): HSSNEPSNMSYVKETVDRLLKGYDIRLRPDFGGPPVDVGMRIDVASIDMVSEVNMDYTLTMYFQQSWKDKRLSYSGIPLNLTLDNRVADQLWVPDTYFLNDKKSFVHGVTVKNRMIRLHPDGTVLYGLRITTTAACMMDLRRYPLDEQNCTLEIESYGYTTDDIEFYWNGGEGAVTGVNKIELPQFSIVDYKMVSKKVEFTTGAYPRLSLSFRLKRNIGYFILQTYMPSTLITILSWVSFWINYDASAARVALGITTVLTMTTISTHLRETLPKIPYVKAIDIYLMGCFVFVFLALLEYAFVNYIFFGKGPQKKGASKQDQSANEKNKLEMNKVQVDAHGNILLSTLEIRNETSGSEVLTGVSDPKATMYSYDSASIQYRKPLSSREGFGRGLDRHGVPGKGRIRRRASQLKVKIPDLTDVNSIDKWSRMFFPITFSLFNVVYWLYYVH
T1 sequence (P23574 36-465 partner limits assumed): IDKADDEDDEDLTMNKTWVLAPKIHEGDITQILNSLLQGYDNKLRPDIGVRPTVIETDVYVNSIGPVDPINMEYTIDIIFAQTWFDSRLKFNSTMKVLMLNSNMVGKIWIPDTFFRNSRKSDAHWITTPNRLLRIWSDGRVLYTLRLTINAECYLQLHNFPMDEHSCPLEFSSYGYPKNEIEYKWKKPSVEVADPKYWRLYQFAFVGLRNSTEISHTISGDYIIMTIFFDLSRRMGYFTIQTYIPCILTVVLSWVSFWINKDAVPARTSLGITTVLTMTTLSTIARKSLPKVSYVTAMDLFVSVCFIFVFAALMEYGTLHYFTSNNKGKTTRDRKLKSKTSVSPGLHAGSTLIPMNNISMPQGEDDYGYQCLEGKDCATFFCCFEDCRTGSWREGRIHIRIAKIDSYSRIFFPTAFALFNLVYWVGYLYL

On to `Cc1nnc2n1-c1ccc(Cl)cc1C(c1ccccc1Cl)=NC2` [triazolam, Triazolam], for which the modulation in assay [1] is on record as over 200%.

Turning to `CN1C(=O)CN=C(c2ccccc2F)c2cc([N+](=O)[O-])ccc21` [[^3H]flunitrazepam], the Kd (commonly the free concentration of one partner at which half of the binding sites on the other are occupied at equilibrium, for simple one-to-one binding) in assay [2] came to 4.8 ± 0.3 nM. For the compound `O=C(Nc1c(-c2cccs2)nc2ccccn12)c1ccc(Cl)cc1` [DS2], the modulation in assay [3] is over 800%.
